In general, CC50 refers to the concentration giving 50% cytotoxicity. Read a high CC50 as lower toxicity to the cells. What is called IC50 is the concentration that inhibits the measured activity by half. In general, solubility refers to the concentration that dissolves in the medium under given conditions. A low value points to little dissolved substance.

The source of these data is ChEMBL document CHEMBL4350972, “Design, synthesis and pharmacological evaluation of a novel mTOR-targeted anti-EV71 agent” (Eur J Med Chem, 2019).

Converted amounts (≈) assume the structure as drawn. The source made the active and inactive calls. No cut-off for these calls is given here.

The nature of series [1]: Cytotoxicity against human RD cells incubated for 4 days by CellTiter-Glo luminescence assay. The series is classed as cell-based. On the technique in general: Cellular ATP, detected with luciferase, serves as a proxy for viable cell number.
A short description of series [2]: Ratio of aqueous solubility for Torin2 to aqueous solubility for test compound. The conditions noted are these: buffer. In kind it is physicochemical.
The next series addresses mTORC1 (Homo sapiens) (UniProt P42345+Q8N122+Q9BVC4). In words: Inhibition of mTORC1 in human RD cells assessed as reduction in P70S6K1 phosphorylation at Thr 389 site at 20 uM incubated for 2 hrs in presence of insulin by Western blot analysis. The series is classed as cell-based. On the technique in general: In western blotting, separated proteins are transferred to a membrane and probed.

A further series has as its target mTORC2 (Homo sapiens) (UniProt P42345+Q6R327+Q9BVC4+Q9BPZ7). Description: Inhibition of mTORC2 in human RD cells assessed as reduction in Akt phosphorylation at Ser473 site at 20 uM incubated for 2 hrs in presence of insulin by Western blot analysis. In kind it is cell-based.
The test system of the next series is Enterovirus A71. Description: Antiviral activity against Enterovirus A71 infected in human RD cells assessed as reduction in virus-induced cell death incubated for 4 days by CellTiter-Glo luminescence assay. In kind it is functional, organism-based. As to conditions: Enterovirus A, 96 h.
Series [3] is described as follows: Aqueous solubility of the compound. The series is classed as physicochemical.

`COC(=O)/C=C/c1ccc2ncc3oc(=O)n(-c4cccc(C(F)(F)F)c4)c3c2c1` displayed a CC50 at 96 h in series [1] of 72000 nM.

`O=c1ccc2cnc3ccc(-c4cccnc4F)cc3c2n1-c1cccc(C(F)(F)F)c1`: the Ratio in series [2] is 5. Besides, the inhibition entry on mTORC1 (Homo sapiens) and on mTORC2 (Homo sapiens) was “Active” each time. In series [1], this compound gave a CC50 at 96 h of 1230 nM. Further, in the series on Enterovirus A71, the IC50 was found to be 59 nM.

As to `O=C(Nc1ccc(-c2ccc3ncc4ccc(=O)n(-c5cccc(C(F)(F)F)c5)c4c3c2)cn1)Oc1ccccc1`, the inhibition result at mTORC1 (Homo sapiens) and on mTORC2 (Homo sapiens) was “Active” throughout. Moreover, the midpoint of cytotoxicity in series [1], the CC50 at 96 h, lay at 200 nM. For the same compound, in the series with Enterovirus A71, the IC50 was found to be 90 nM.

With `Cc1ccc(-c2ccc3ncc4oc(=O)n(-c5cccc(C(F)(F)F)c5)c4c3c2)cn1`, the inhibition result at mTORC1 (Homo sapiens) and at mTORC2 (Homo sapiens) was “inactive” in each case. Half-maximal cytotoxicity in series [1] (CC50 at 96 h) was put at 16900 nM. The IC50 in the series with Enterovirus A71 is 4780 nM.

As to `Nc1cccc(Nc2ccc3ncc4ccc(=O)n(-c5cccc(C(F)(F)F)c5)c4c3c2)n1`, the inhibition result on mTORC1 (Homo sapiens) and on mTORC2 (Homo sapiens) was “Active” throughout. This compound had a CC50 at 96 h in series [1] of 5190 nM. In addition, the IC50 in the series on Enterovirus A71 was 2470 nM.

Consider `CC(=O)/C=C/c1cnc2ccc(-c3ccc(F)nc3)cc2c1Nc1cccc(C(F)(F)F)c1`, for which the CC50 at 96 h in series [1] was 2230 nM.

Consider `N#C/C=C/c1ccc2ncc3oc(=O)n(-c4cccc(C(F)(F)F)c4)c3c2c1`, for which the CC50 at 96 h in series [1] was above 200000 nM.

Consider `CCCC(=O)Nc1ccc(-c2ccc3ncc4ccc(=O)n(-c5cccc(C(F)(F)F)c5)c4c3c2)cn1`, for which the inhibition entry at mTORC1 (Homo sapiens) and on mTORC2 (Homo sapiens) was “Active” in each case. The compound also yielded a CC50 at 96 h in series [1] of 750 nM. Besides, in the series on Enterovirus A71, the IC50 is 170 nM.

As for `Nc1cccc(Nc2ccc3ncc4ccc(=O)n(-c5cccc(C(F)(F)F)c5)c4c3c2)c1`, the inhibition entry on mTORC1 (Homo sapiens) and on mTORC2 (Homo sapiens) was “Active” in each case. The compound further showed a CC50 at 96 h in series [1] of 7580 nM. For the same compound, the IC50 in the series on Enterovirus A71 was 890 nM.

For the compound `COc1ncccc1-c1ccc2ncc3ccc(=O)n(-c4cccc(C(F)(F)F)c4)c3c2c1`, the CC50 at 96 h in series [1] is above 200000 nM.

With `CC(C)C(=O)Nc1ccc(-c2ccc3ncc4ccc(=O)n(-c5cccc(C(F)(F)F)c5)c4c3c2)cn1`, the inhibition result at mTORC1 (Homo sapiens) and at mTORC2 (Homo sapiens) was “Active” each time. The compound also showed a CC50 at 96 h in series [1] of 460 nM. Also, in the series on Enterovirus A71, the IC50 came to 820 nM.

`CN(C)c1ccc(-c2ccc3ncc4ccc(=O)n(-c5cccc(C(F)(F)F)c5)c4c3c2)cn1`: the inhibition entry at mTORC1 (Homo sapiens) and on mTORC2 (Homo sapiens) was “Active” throughout. The compound further had a CC50 at 96 h in series [1] of 170 nM. In the series with Enterovirus A71, the IC50 turned out to be 270 nM.

Turning to `O=C1Cc2cc(-c3ccc4ncc5ccc(=O)n(-c6cccc(C(F)(F)F)c6)c5c4c3)ccc2N1`, the inhibition result at mTORC1 (Homo sapiens) is “Active”. The compound also gave a CC50 at 96 h in series [1] of 10300 nM. Besides, the IC50 in the series on Enterovirus A71 is 7400 nM.

Consider `O=c1oc2cnc3ccc(-c4cnc5ccccc5c4)cc3c2n1-c1cccc(C(F)(F)F)c1`, for which the CC50 at 96 h in series [1] was 68900 nM.

Regarding `O=c1ccc2cnc3ccc(-c4ccc(N5CCCC5)nc4)cc3c2n1-c1cccc(C(F)(F)F)c1`, the inhibition entry at mTORC1 (Homo sapiens) and on mTORC2 (Homo sapiens) was “Active” throughout. Also, the CC50 at 96 h in series [1] was 1790 nM. Besides, the IC50 in the series with Enterovirus A71 amounted to 2470 nM.

Regarding `CCC(=O)Nc1ccc(-c2ccc3ncc4ccc(=O)n(-c5cccc(C(F)(F)F)c5)c4c3c2)cn1`, the inhibition entry on mTORC1 (Homo sapiens) and on mTORC2 (Homo sapiens) was “Active” throughout. The CC50 at 96 h in series [1] is 40 nM. Further, the IC50 with Enterovirus A71 was found to be 27 nM.

`CC(=O)/C=C/c1cnc2ccc(-c3ccc(N)cc3)cc2c1Nc1cccc(C(F)(F)F)c1`: the inhibition entry at mTORC1 (Homo sapiens) and at mTORC2 (Homo sapiens) was “inactive” throughout. Moreover, the midpoint of cytotoxicity in series [1], the CC50 at 96 h, lay at 5140 nM. Besides, the IC50 in the series with Enterovirus A71 was found to be 5140 nM.

`CC(=O)/C=C/c1cnc2ccc(-c3cccc(N)c3)cc2c1Nc1cccc(C(F)(F)F)c1` yielded a CC50 at 96 h in series [1] above 200000 nM.

Consider `O=c1ccc2cnc3ccc(-c4ccc(F)nc4)cc3c2n1-c1cccc(C(F)(F)F)c1`, for which the inhibition entry on mTORC1 (Homo sapiens) and at mTORC2 (Homo sapiens) was “Active” each time. In series [1], half-maximal cytotoxicity (CC50 at 96 h) was put at 230 nM. The IC50 in the series on Enterovirus A71 was determined as 70 nM.

In the case of `O=c1ccc2cnc3ccc(-c4ccc(N5CCOCC5)nc4)cc3c2n1-c1cccc(C(F)(F)F)c1`, the inhibition result on mTORC1 (Homo sapiens) and at mTORC2 (Homo sapiens) was “Active” each time. Also, the half-maximal cytotoxic concentration (CC50) at 96 h in series [1] was 2910 nM. The IC50 with Enterovirus A71 was 2630 nM.

Compound `COc1cncc(-c2ccc3ncc4oc(=O)n(-c5cccc(C(F)(F)F)c5)c4c3c2)c1` had a CC50 at 96 h in series [1] of 68500 nM.

For `Nc1ccc(-c2ccc3ncc4ccc(=O)n(-c5cccc(C(F)(F)F)c5)c4c3c2)cn1`, the solubility in series [3] is 1.29 µg/mL (≈ 2.98 µM). The IC50 in the series with Enterovirus A71 was found to be 10 nM.

In the case of `COc1ccc(-c2ccc3ncc4ccc(=O)n(-c5cccc(C(F)(F)F)c5)c4c3c2)cn1`, the inhibition result at mTORC1 (Homo sapiens) and on mTORC2 (Homo sapiens) was “Active” each time. This compound returned a CC50 at 96 h in series [1] of 130 nM. For the same compound, the IC50 in the series with Enterovirus A71 was 40 nM.

For the compound `CC(=O)/C=C/c1cnc2ccc(-c3cnc4ccccc4c3)cc2c1Nc1cccc(C(F)(F)F)c1`, half-maximal cytotoxicity in series [1] (CC50 at 96 h) was put at 680 nM.

As to `O=C(Nc1ccc(-c2ccc3ncc4ccc(=O)n(-c5cccc(C(F)(F)F)c5)c4c3c2)cn1)OCc1ccccc1`, the inhibition result on mTORC1 (Homo sapiens) and on mTORC2 (Homo sapiens) was “Active” in each case. This compound also showed a CC50 at 96 h in series [1] of 1000 nM. Further, the IC50 in the series with Enterovirus A71 came to 23700 nM.

Regarding `CO[C@H]1C[C@@H]2CC[C@@H](C)[C@@](O)(O2)C(=O)C(=O)N2CCCC[C@H]2C(=O)O[C@H]([C@H](C)C[C@@H]2CC[C@@H](O)[C@H](OC)C2)CC(=O)[C@H](C)/C=C(\C)[C@@H](O)[C@@H](OC)C(=O)[C@H](C)C[C@H](C)/C=C/C=C/C=C/1C`, on mTORC1 (Homo sapiens), the inhibition result is “Active”.

As for `CCCCC(=O)Nc1ccc(-c2ccc3ncc4ccc(=O)n(-c5cccc(C(F)(F)F)c5)c4c3c2)cn1`, the inhibition result at mTORC1 (Homo sapiens) and at mTORC2 (Homo sapiens) was “Active” each time. It took 700 nM to reach half-maximal cytotoxicity in series [1] (CC50 at 96 h). Moreover, in the series on Enterovirus A71, the half-maximal inhibitory concentration (IC50) is 200 nM.

In series [1], `COc1cncc(-c2ccc3ncc(/C=C/C(C)=O)c(Nc4cccc(C(F)(F)F)c4)c3c2)c1` had a CC50 at 96 h above 200000 nM.

Regarding `CC(C)(C)OC(=O)Nc1ccc(-c2ccc3ncc4ccc(=O)n(-c5cccc(C(F)(F)F)c5)c4c3c2)cn1`, the inhibition entry on mTORC1 (Homo sapiens) and on mTORC2 (Homo sapiens) was “Active” throughout. The CC50 at 96 h in series [1] stood at 690 nM. Also, the IC50 in the series with Enterovirus A71 was 2470 nM.

Regarding `O=C(Cc1ccccc1)Nc1ccc(-c2ccc3ncc4ccc(=O)n(-c5cccc(C(F)(F)F)c5)c4c3c2)cn1`, the inhibition result on mTORC1 (Homo sapiens) and at mTORC2 (Homo sapiens) was “Active” each time. The compound also had a CC50 at 96 h in series [1] of 740 nM. For the same compound, in the series on Enterovirus A71, the IC50 was determined as 560 nM.

`CN1CCN(c2ccc(-c3ccc4ncc5ccc(=O)n(-c6cccc(C(F)(F)F)c6)c5c4c3)cn2)CC1`: the Ratio in series [2] came out at 15. The inhibition entry on mTORC1 (Homo sapiens) is “Active”. For the same compound, in series [1], half-maximal cytotoxicity (CC50 at 96 h) was put at 180 nM. Moreover, the IC50 in the series with Enterovirus A71 was determined as 90 nM.

Consider `NC(=O)NC/C=C/c1ccc2ncc3oc(=O)n(-c4cccc(C(F)(F)F)c4)c3c2c1`, for which the inhibition result on mTORC1 (Homo sapiens) and at mTORC2 (Homo sapiens) was “inactive” each time. In addition, it took 66600 nM to reach half-maximal cytotoxicity in series [1] (CC50 at 96 h). Also, the IC50 with Enterovirus A71 was 48900 nM.
